Values after ≈ are worked out from the molar mass of the structure shown.
What was measured:
[1] = system: S. aureus FDA209P (ATCC 6538P); test: microbe, parasite or virus in culture; format: cell-based, Staphylococcus aureus; settings: Example 1, Tables 1 to 10; for MIC: Staphylococcus aureus, read-out: MIC (mg/L) FDA209P
Description: (§1) S. aureus Mu50 (refer to Hiramatsu, K., Hanaki H., et al., J. Antimicrob. Chemother., 1997, 40(1), 135-6) or S. aureus FDA209P (ATCC 6538P) was cultured overnight at 37° C. in 4 mL of TBS (Tryptical Soy Broth, produced by Becton Dickinson) with shaking. After completion of the culture, the cells were suspended in fresh TBS to prepare a cell suspension showing an absorbance of 0.3 at 578 nm. Then, the cell suspension was diluted 500 times with CAMHB mentioned above.
(§2) CAMHB containing each test compound at each of the aforementioned concentrations was added to each well of a 96-well plate in a volume of 50 μL/well, the aforementioned cell suspension diluted 500 time was added to the well in a volume of 50 μL/well, and stationary culture was carried out overnight at 37° C.
(§3) MIC values (mg/L) of the flavones and quinolones against the strains were measured in the same manner as that of the measurement of MIC of Example 1, except that CAMHB containing each of the aforementioned flavones and quinolones prepared in Example 2 was used instead of CAMHB containing each of the test compounds.
(§4) MIC values of the flavones and quinolone for the strains were measured in the same manners as those of Example 1, except that S. aureus Mu50 NR-1 was also used as Staphylococcus aureus in addition to S. aureus FDA209P and S. aureus Mu50, cell suspensions of the strains were prepared.
(§5) In the same manner as that of Example 1, MIC values of M-246, M-21, J-Q21, and J-Q12.1 for Staphylococcus aureus were measured. M-246 and M-21 were obtained as commercial products, and as J-Q21 and J-Q12.1, those synthesized in Examples 6 and 7 were used.

S. aureus Mu50 = test: microbe, parasite or virus in culture; format: cell-based, Staphylococcus aureus; settings: for MIC: Staphylococcus aureus, MU50, read-out: MIC (mg/L) Mu50, Example 1, Tables 1 to 10; for MIC (mg/L) Mu50: Example 1, Tables 1 to 10
Description: as §1, §2, §3, §4, §5

`COc1ccc(-c2oc3cc(OC)c(OC)c(O)c3c(=O)c2OC)cc1O` [compound 33] was tested, and the MIC [1] was over 128 mg/L and the MIC (S. aureus Mu50) was 128 mg/L (≈ 342 µM).

`COc1ccc(-c2cc(=O)c3c(O)c(O)c(O)cc3o2)cc1` [compound 34] gave an MIC [1] of 128 mg/L (≈ 426 µM) and an MIC (S. aureus Mu50) of 128 mg/L (≈ 426 µM).

For `COc1cc(-c2oc3c(OC)c(OC)c(OC)c(OC)c3c(=O)c2OC)cc2c1OCO2` [compound 35], the “MIC (mg/L) FDA209P” value [1] was over 128 mg/L.

With `CC(=O)Oc1cc(OC(C)=O)c2c(=O)cc(-c3ccc(OC(C)=O)c(OC(C)=O)c3)oc2c1` [compound 36] the MIC [1] was over 128 mg/L and the MIC (S. aureus Mu50) was over 128 mg/L.

With `O=c1c(O)c(-c2ccc(O)c(O)c2)oc2c(O)c(O)cc(O)c12` [compound 37] the MIC [1] was 128 mg/L (≈ 402 µM), the “MIC (mg/L) Mu50” value (S. aureus Mu50) was 64 mg/L (≈ 201 µM) and the MIC (S. aureus Mu50) was 62 mg/L (≈ 195 µM).

For `COc1ccc(-c2cc(=O)c3c(OC)c(OC)c(OC)cc3o2)cc1O` [compound 39], the MIC [1] was 128 mg/L (≈ 357 µM) and the MIC (S. aureus Mu50) was 128 mg/L (≈ 357 µM).

`COc1ccc(-c2cc(=O)c3c(O)c(OC)c(OC)cc3o2)cc1O` [compound 40] gave an MIC [1] of 128 mg/L (≈ 372 µM) and an MIC (S. aureus Mu50) of 128 mg/L (≈ 372 µM).

`O=c1cc(-c2ccc(O)cc2)oc2cc(O)c(O)c(O)c12` [compound 41] was tested, and the MIC [1] was 128 mg/L (≈ 447 µM) and the MIC (S. aureus Mu50) was 128 mg/L (≈ 447 µM).

For `COc1ccc(-c2cc(=O)c3c(OC)c(OC)c(OC)cc3o2)cc1OC` [compound 42], the MIC [1] was over 128 mg/L and the MIC (S. aureus Mu50) was over 128 mg/L.

`COc1cc(OC)c2c(=O)cc(-c3cc(OC)c(OC)c(OC)c3)oc2c1` [compound 43] gave an MIC [1] of over 128 mg/L and an MIC (S. aureus Mu50) of over 128 mg/L.

`CC1(C)C=Cc2c(cc3oc(-c4ccc(O)cc4)cc(=O)c3c2O)O1` [compound 44] was tested, and the MIC [1] was over 128 mg/L and the MIC (S. aureus Mu50) was over 128 mg/L.

With `O=c1cc(-c2ccc(O)c(-c3c(O)cc(O)c4c(=O)cc(-c5ccc(O)cc5)oc34)c2)oc2cc(O)cc(O)c12` [compound 45] the MIC [1] was over 128 mg/L and the MIC (S. aureus Mu50) was over 128 mg/L.

`COc1cc(OC)c2c(=O)cc(-c3ccccc3)oc2c1C1=COC(C)(C)C1=O` [compound 46] gave an MIC [1] of 128 mg/L (≈ 326 µM) and an MIC (S. aureus Mu50) of over 128 mg/L.

Work on `COc1cc(O)c(CN(C)C)c2oc(-c3ccccc3)cc(=O)c12` [compound 47] yielded an MIC [1] of 128 mg/L (≈ 393 µM) and an MIC (S. aureus Mu50) of over 128 mg/L.

In the case of `COc1cc(O)c(CN2CCCCC2)c2oc(-c3ccccc3)cc(=O)c12` [compound 48], the “MIC (mg/L) FDA209P” value [1] is reported as 128 mg/L (≈ 350 µM) and the “MIC (mg/L) Mu50” value (S. aureus Mu50) is reported as over 128 mg/L.

With `COc1cc(O)c(CN2CC(C)CC(C)C2)c2oc(-c3ccccc3)cc(=O)c12` (stereo not shown) [compound 49] the “MIC (mg/L) FDA209P” value [1] was 128 mg/L (≈ 325 µM) and the “MIC (mg/L) Mu50” value (S. aureus Mu50) was over 128 mg/L.

With `COc1cc(O)c(CN2CCOCC2)c2oc(-c3ccccc3)cc(=O)c12` [compound 50] the MIC [1] was over 128 mg/L and the MIC (S. aureus Mu50) was over 128 mg/L.

In the case of `COc1cc(O)c(CN2CCN(C)CC2)c2oc(-c3ccccc3)cc(=O)c12` [compound 51], the “MIC (mg/L) FDA209P” value [1] is reported as 128 mg/L (≈ 336 µM) and the “MIC (mg/L) Mu50” value (S. aureus Mu50) is reported as 128 mg/L (≈ 336 µM).

In the case of `COc1cc(O)c(CN2CCCCC2C)c2oc(-c3ccccc3)cc(=O)c12` (stereo not shown) [compound 52], the “MIC (mg/L) FDA209P” value [1] is reported as over 128 mg/L and the “MIC (mg/L) Mu50” value (S. aureus Mu50) is reported as over 128 mg/L.

For `COc1cc(O)c(CN2CCCC(C)C2)c2oc(-c3ccccc3)cc(=O)c12` (stereo not shown) [compound 53], the “MIC (mg/L) FDA209P” value [1] was 128 mg/L (≈ 337 µM).

Work on `O=c1c(O)c(-c2ccccc2S(=O)(=O)O)oc2ccccc12` [compound 54] yielded an MIC [1] of 128 mg/L (≈ 402 µM) and an MIC (S. aureus Mu50) of 128 mg/L (≈ 402 µM).

With `Cc1c(-c2ccccc2)oc2c(C(=O)OCCN3CCCCC3)cccc2c1=O` [compound 55] the MIC [1] was 128 mg/L (≈ 327 µM) and the MIC (S. aureus Mu50) was over 128 mg/L.

In the case of `CC(=O)C1C(=O)c2ccccc2N(c2ccccc2)C1=O` (stereo not shown) [compound 56], the MIC [1] is reported as over 128 mg/L and the MIC (S. aureus Mu50) is reported as over 128 mg/L.

In the case of `O=c1cc(-c2ccccc2)oc2ccc3ccccc3c12` [compound 57], the “MIC (mg/L) FDA209P” value [1] is reported as 128 mg/L (≈ 470 µM) and the “MIC (mg/L) Mu50” value (S. aureus Mu50) is reported as 128 mg/L (≈ 470 µM).

For `O=c1cc(-c2ccccc2)oc2c1ccc1ccccc12` [compound 58], the “MIC (mg/L) FDA209P” value [1] was 128 mg/L (≈ 470 µM) and the “MIC (mg/L) Mu50” value (S. aureus Mu50) was 128 mg/L (≈ 470 µM).

`O=C(O)[C@H]1O[C@@H](Oc2cc3oc(-c4ccccc4)cc(=O)c3c(O)c2O)[C@H](O)[C@@H](O)[C@@H]1O` [compound 59] was tested, and the MIC [1] was 128 mg/L (≈ 287 µM) and the MIC (S. aureus Mu50) was 128 mg/L (≈ 287 µM).

With `O=c1cc(-c2ccc(O)c(O)c2)oc2c(C3OC(CO)C(O)C(O)C3O)c(O)cc(O)c12` (stereo not shown) [compound 60] the “MIC (mg/L) FDA209P” value [1] was over 128 mg/L and the “MIC (mg/L) Mu50” value (S. aureus Mu50) was over 128 mg/L.

`COc1cc(O)c2c(=O)c(-c3cc4c(cc3C)OCCO4)c(C)oc2c1` [compound 86] was tested, and the “MIC (mg/L) FDA209P” value [1] was over 128 mg/L.

`CCc1oc2cc(O)cc(O)c2c(=O)c1-c1ccc(OC)cc1` [compound 90] gave an MIC [1] of 128 mg/L (≈ 410 µM).

Source: patent publication US20150322033A1, “ANTIBACTERIAL AGENT” (priority 2012, published 2015)
